This experiment concerns the target Human Factor D (Homo sapiens (Human), UniProt P00746). Kind of experiment: Human Factor D assay (Z-L-Lys-SBzl / DTNB, absorbance at 405 nm). The class given is biochemical. Conditions: Table 4; Human Factor D 80 nM, assay of Example 13. Put shortly:
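Human serum-purified Factor D (80 nM final) was preincubated with compound for 5 min at room temperature in 50 mM Tris, 1M NaCl, pH 7.5. IC50 came from nonlinear regression of rate versus compound concentration.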
Chain of Human Factor D (P00746 26-253): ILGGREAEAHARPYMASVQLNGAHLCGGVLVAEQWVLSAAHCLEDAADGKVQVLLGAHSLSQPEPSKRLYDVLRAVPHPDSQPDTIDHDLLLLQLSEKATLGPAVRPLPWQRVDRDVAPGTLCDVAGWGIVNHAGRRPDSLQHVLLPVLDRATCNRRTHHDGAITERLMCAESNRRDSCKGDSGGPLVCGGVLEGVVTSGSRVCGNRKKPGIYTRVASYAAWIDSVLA
`CC(=O)c1nn(CC(=O)N2C[C@H](F)C[C@H]2C(=O)Nc2cccc(-c3ccc4nc(N)sc4c3)c2F)c2ccccc12` [Compound 101, (2S,4R)-1-(2-(3-acetyl-1H-indazol-1-yl)acetyl)-N-(3-(2-aminobenzo[d]thiazol-6-yl)-2-fluorophenyl)-4-fluoropyrrolidine-2-carboxamide]: the IC50 was less than 1000 nM.

Turning to `CC(=O)c1nn(CC(=O)N2C[C@H](F)C[C@H]2C(=O)Nc2cccc(-c3ccc4[nH]c(=O)[nH]c(=O)c4c3)c2F)c2ccccc12` [Compound 102, (2S,4R)-1-(2-(3-acetyl-1H-indazol-1-yl)acetyl)-N-(3-(2,4-dioxo-1,2,3,4-tetrahydroquinazolin-6-yl)-2-fluorophenyl)-4-fluoropyrrolidine-2-carboxamide], the IC50 is less than 1000 nM.

The compound `CC(=O)c1nn(CC(=O)N2C[C@H](F)C[C@H]2C(=O)Nc2cccc(-c3ccc4sc(O)nc4c3)c2F)c2ccccc12` [Compound 103, (2S,4R)-1-(2-(3-acetyl-1H-indazol-1-yl)acetyl)-4-fluoro-N-(2-fluoro-3-(2-hydroxybenzo[d]thiazol-5-yl)phenyl)pyrrolidine-2-carboxamide] showed an IC50 of less than 1000 nM.

`CC(=O)c1nn(CC(=O)N2C[C@H](F)C[C@H]2C(=O)Nc2cccc(/C=C/c3nc4c(Cl)cccc4[nH]3)c2F)c2ccccc12` [Compound 104, (2S,4R)-1-(2-(3-acetyl-1H-indazol-1-yl)acetyl)-N-(3-((E)-2-(4-chloro-1H-benzo[d]imidazol-2-yl)vinyl)-2-fluorophenyl)-4-fluoropyrrolidine-2-carboxamide]: the IC50 is less than 1000 nM.

`Cc1cccc(NC(=O)[C@@H]2CCC(F)CCN2C(=O)Cn2cc(C(N)=O)c3cc(C4=CCCCC4)ccc32)n1` (stereo partly drawn) [Compound 106, 5-(cyclohex-1-en-1-yl)-1-(2-((2S)-5-fluoro-2-((6-methylpyridin-2-yl)carbamoyl)azepan-1-yl)-2-oxoethyl)-1H-indole-3-carboxamide] yielded an IC50 greater than 10000 nM.

The compound `Cc1c(Br)c(C(N)=O)nn1CC(=O)N1C[C@H](F)C[C@H]1C(=O)Nc1cccc(Br)n1` [Compound 107, 4-Bromo-1-(2-((2S,4R)-2-((6-bromopyridin-2-yl)carbamoyl)-4-fluoropyrrolidin-1-yl)-2-oxoethyl)-5-methyl-1H-pyrazole-3-carboxamide] showed an IC50 of 1000 to 10000 nM.

Compound `CC(=O)c1ccn(CC(=O)N2C[C@H](F)C[C@H]2C(=O)Nc2cccc(Br)n2)c1` [Compound 108, (2S,4R)-1-(2-(3-Acetyl-1H-pyrrol-1-yl)acetyl)-N-(6-bromopyridin-2-yl)-4-fluoropyrrolidine-2-carboxamide] showed an IC50 of […].

Usually IC50 stands for the concentration that inhibits the measured activity by half.
